Test results: publication PMC8226672, “Trimethoxylated Halogenated Chalcones as Dual Inhibitors of MAO-B and BACE-1 for the Treatment of Neurodegenerative Disorders” (Pharmaceutics, 2021)
In brackets after ≈: the same amount, converted by molar mass. Like-named read-outs stand apart in the source and are kept apart here.

Columns and labels:
[1] = biological target: T1, recombinant MAO-A (Homo sapiens, UniProt P21397); assay: MAO-A inhibition (recombinant enzyme, kynuramine substrate); type: biochemical; conditions: for remaining activity at 10 µM: read-out: Residual Activity (%) MAO-A; for IC50: reference compounds after preincubation with enzymes for 30 min
T1 sequence (P21397 1-527): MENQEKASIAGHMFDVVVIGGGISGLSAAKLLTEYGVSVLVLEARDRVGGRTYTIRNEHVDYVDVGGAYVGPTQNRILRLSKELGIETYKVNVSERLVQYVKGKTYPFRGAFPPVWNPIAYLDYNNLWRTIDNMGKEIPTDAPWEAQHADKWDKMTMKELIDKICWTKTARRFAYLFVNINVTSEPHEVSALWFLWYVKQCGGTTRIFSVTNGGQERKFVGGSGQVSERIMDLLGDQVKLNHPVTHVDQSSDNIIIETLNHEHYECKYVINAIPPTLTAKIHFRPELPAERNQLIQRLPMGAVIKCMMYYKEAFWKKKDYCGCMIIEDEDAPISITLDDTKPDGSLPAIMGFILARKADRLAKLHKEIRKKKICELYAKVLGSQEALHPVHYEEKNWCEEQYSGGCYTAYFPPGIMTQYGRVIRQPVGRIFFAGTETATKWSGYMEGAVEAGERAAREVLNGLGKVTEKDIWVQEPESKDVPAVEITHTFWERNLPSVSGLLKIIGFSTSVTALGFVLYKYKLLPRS
Description: (§1) MAO events were assessed with recombinant MAO-A and MAO-B, as well as the substrates kynuramine (0.06 mM) and benzylamine (0.3 mM). […] The IC50 value of CH5 for BACE-1 was also analyzed.
(§2) The inhibitory actions of the six molecules against MAO-A, MAO-B, and BACE-1 were first tested at 10 µM. Initially, the IC50 values of the compounds for MAOs were calculated.

[2] = biological target: T2, MAO-B (Homo sapiens, UniProt P27338); assay: MAO-B inhibition (recombinant enzyme, benzylamine substrate); type: biochemical; conditions: for remaining activity at 10 µM: read-out: Residual Activity (%) MAO-B; for IC50: reference compounds after preincubation with enzymes for 30 min; for SI (selectivity index): for MAO-B as compared with MAO-A
T2 sequence (P27338 1-520): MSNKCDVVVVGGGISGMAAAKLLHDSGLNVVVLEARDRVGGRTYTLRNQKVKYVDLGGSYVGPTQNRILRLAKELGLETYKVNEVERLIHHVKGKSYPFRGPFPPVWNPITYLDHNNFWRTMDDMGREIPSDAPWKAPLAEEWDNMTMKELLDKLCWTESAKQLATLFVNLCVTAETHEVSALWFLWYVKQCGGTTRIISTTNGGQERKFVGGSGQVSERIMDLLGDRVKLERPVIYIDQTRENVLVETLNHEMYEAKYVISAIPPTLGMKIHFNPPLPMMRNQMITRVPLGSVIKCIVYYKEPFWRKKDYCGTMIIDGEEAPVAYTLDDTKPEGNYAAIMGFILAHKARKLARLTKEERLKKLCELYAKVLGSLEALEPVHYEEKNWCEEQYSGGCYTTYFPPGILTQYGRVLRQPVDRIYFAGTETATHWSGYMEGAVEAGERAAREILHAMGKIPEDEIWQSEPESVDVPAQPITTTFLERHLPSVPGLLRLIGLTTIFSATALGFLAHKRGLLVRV
Description: as §1, §2

[3] = biological target: T3, β-secretase (BACE-1) (Homo sapiens, UniProt P56817); assay: BACE-1 inhibition (β-secretase assay kit, fluorescence); type: biochemical; conditions: for remaining activity at 10 µM: read-out: Residual Activity (%) BACE-1; for IC50: reference compounds after preincubation with enzymes for 30 min
T3 construct: purchased
T3 sequence (P56817 46-501): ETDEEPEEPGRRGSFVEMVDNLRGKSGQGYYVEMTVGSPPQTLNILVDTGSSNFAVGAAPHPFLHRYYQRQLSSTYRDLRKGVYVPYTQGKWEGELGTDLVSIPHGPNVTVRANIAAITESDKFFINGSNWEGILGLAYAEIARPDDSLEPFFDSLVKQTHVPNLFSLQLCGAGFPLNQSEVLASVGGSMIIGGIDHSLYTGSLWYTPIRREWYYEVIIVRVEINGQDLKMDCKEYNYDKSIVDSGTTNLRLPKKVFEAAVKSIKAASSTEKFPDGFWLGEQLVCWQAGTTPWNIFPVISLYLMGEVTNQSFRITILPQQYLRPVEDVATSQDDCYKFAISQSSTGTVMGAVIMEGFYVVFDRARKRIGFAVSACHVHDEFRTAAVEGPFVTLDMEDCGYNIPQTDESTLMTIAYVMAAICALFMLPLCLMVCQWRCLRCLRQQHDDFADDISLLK
Description: as §1, §2

[4] = Parallel artificial membrane permeability assay (PAMPA) for BBB permeability
From the text: (§6) The CNS bioavailability of the molecules was confirmed by a parallel artificial membrane permeability assay (PAMPA) by Di et al. [61].

[5] = PAMPA
From the text: as §6

[6] = biological target: T2, MAO-B; assay: MAO-B kinetic study (Lineweaver–Burk and secondary plots); type: biochemical; conditions: for Type of MAO-B inhibition: Lineweaver–Burk plots; for Ki: secondary plots of slopes vs. inhibitor concentrations
Description: MAO events were assessed with recombinant MAO-A and MAO-B, as well as the substrates kynuramine (0.06 mM) and benzylamine (0.3 mM). The kinetics of MAO-B were analyzed under 2.4 × Km (i.e., 0.051 mM) of benzylamine. BACE-1 was measured using a β-secretase (BACE-1) assay kit at 320 nm for excitation and 405 nm for emission using a fluorescence spectrometer. […] The IC50 value of CH5 for BACE-1 was also analyzed.
The inhibitory actions of the six molecules against MAO-A, MAO-B, and BACE-1 were first tested at 10 µM. Initially, the IC50 values of the compounds for MAOs were calculated. At three inhibitory concentrations and five substrate concentrations, kinetic tests were conducted on CH4 and CH5, which inhibited MAO-B most potently.
Kinetic experiments were carried out at five concentrations of the substrates and three inhibitor concentrations.

[7] = In vitro toxicity, MTT cell viability assay; type: cell-based; conditions: African green monkey; for IC50 at 48 h: Vero cells (African green monkey kidney cell line), 1 to 500 µg/mL; for viability at 48 h: Vero cells (kidney cell line), read-out: Percentage of viable cells
Description: (§3) The lead molecules CH4 and CH5 in the current series were further evaluated for their cytotoxic nature and ROS scavenging ability by the previously reported procedure (Supplementary Material).
An in vitro toxicity evaluation of CH4 and CH5 was carried out using an MTT assay. We used the African Green Monkey kidney cell line (Vero) as a valuable in vitro model for basal toxicity studies. To check the toxicity of the tested compounds, the Vero cell line was incubated with different concentrations of CH4 and CH5 (1 to 500 µg/mL), and the relative cell viability was measured after 48 h. […] The result of the cell viability assay was represented as a dose–response curve using the GraphPad Prism 6.0 software (USA). […] The reduction in cell number and also the membrane damage were very evident in treatment with CH4 and CH5 at IC50 and higher concentrations, as analyzed by phase-contrast microscope. These two experiments strongly support that CH4 and CH5 are one hundred times safer than the effective concentration of one micromolar (Figure 3C and Figure 4C). […]
1.2. Cytotoxicity Studies
The cell line of Vero (African green monkey kidney cells) was procured from NCCS, Pune and were grown in liquid medium (DMEM) containing, 100 ug/mL penicillin, 100 µg/mL streptomycin, and 10% Fetal Bovine Serum (FBS) and preserved under an atmosphere of 5% CO2 at 37 °C. The CH4 and CH5 sample was assayed for in vitro cytotoxicity by MTT assay using the cultured Vero cells. Briefly, the cultured Vero cells were produced by cell dissociation with trypsin (trypsinization), collectively in a 15 mL tube. At a density of 1×10^5 cells/mL cells/well (200 µL) the cells were plated for 24-48 hour at 37°C into 96-well tissue culture plate in DMEM medium containing 10 % FBS and 1% antibiotic solution. The wells were washed with sterile Phosphate buffered saline and further allowed to react with varying concen-trations of the CH4 and CH5 sample in a serum free DMEM medium. The samples were triplicated and the cells were kept for incubation at 37°C for 24 h in a humidified 5% CO2 incubator. MTT (20 µL of 5 mg/mL) was added in-to each well after the incubation and the cells were incubated for another 2–4 […]
(§4) h. The end point was determined by the purple precipitation which was clearly seen under an inverted microscope. […] The absorbance at 570 nm was measured using a micro plate reader (Thermo Fisher Scientific, USA). The IC50 value and the percentage cell viability was calculated using GraphPad Prism 8.0 software (USA). […]
(§5) DMEM medium and incubated at 37°C for 24 h. […] After the incubation period, the cells were treated with 100 µM/mL of 30% H2O2 and the production of ROS was evaluated immediately by fluorescence imaging system (ZOE, BIO-

[8] = tested on: Vero cells; assay: ROS assay in H2O2-treated Vero cells; type: cell-based, African Green Monkey; conditions: Vero cells treated with H2O2; compounds at IC50 conc. (CH4 198.5 µg/mL, CH5 126.4 µg/mL)
From the text: as §3
Our next attempt was to study the effect of CH4 and CH5 on inhibiting the excess reactive oxygen species (ROS) involved in the pathogenesis of neurodegenerative diseases. This ROS causes neuronal damage via oxidative damage in the brain during neurodegenerative diseases. We examined the intracellular ROS generation on Vero cell cultures after exposure to exogenous H2O2. […] Based on this observation, it is understood that the disruption of the balance between pro-oxidant and antioxidant levels can be retained by CH4 and CH5 at IC50 concentrations. […]
as §4, with “microscope. At the end, the medium along with MTT (220 µL) were used for the aspiration of the wells and later washed with 1X PBS (200 µL).” for “microscope.”
as §5

[9] = biological target: T2, MAO-B; assay: MAO-B inhibitor reversibility analysis by dialysis; conditions: for Relative activity, dialyzed (AD): after dialysis; for Relative activity, dialyzed (AD) / Relative activity, undialyzed (AU): CH4 1.68 µM, CH5 0.92 µM, lazabemide […], pargyline 0.28 µM; for Reversibility of MAO-B inhibition: dialysis; for Relative activity, undialyzed (AU): preincubation 30 min
Description: Reversibility patterns were analyzed by comparing the activities of dialyzed (AD) and undialyzed (AU) samples [58].
The relative activities for undialyzed (AU) and dialyzed (AD) samples were compared to determine the reversibility patterns.

| Structure (SMILES) | remaining activity at 10 µM [1] | remaining activity at 10 µM [2] | remaining activity at 10 µM [3] | Papp [4] | IC50 [2] | Prediction (CNS permeability class) [5] | IC50 [1] | SI (selectivity index) [2] | IC50 [3] | Type of MAO-B inhibition [6] | Ki [6] | IC50 at 48 h [7] | viability at 48 h ([7]; up to 200 µg/mL) | Effect on ROS levels [8] | Relative activity, dialyzed (AD) [9] | Reversibility of MAO-B inhibition [9] | Relative activity, undialyzed (AU) [9] | viability at 48 h ([7]; up to 100 times the effective concentration) |
| --- | --- | --- | --- | --- | --- | --- | --- | --- | --- | --- | --- | --- | --- | --- | --- | --- | --- | --- |
| COc1cc(OC)c(C(=O)/C=C/c2ccc(F)cc2)c(OC)c1 [CH3, (E)-3-(4-fluorophenyl)-1-(2,4,6-trimethoxyphenyl)prop-2-en-1-one] | 94.9 ± 7.19% | 75.4 ± 0.27% | 59.7 ± 0.077% | 15.3 ± 0.71 ×10⁻⁶ cm/s | – | – | – | – | – | – | – | – | – | – | – | – | – | – |
| COc1ccc(C(=O)/C=C/c2ccc(F)cc2)c(OC)c1OC [CH6, (E)-3-(4-fluorophenyl)-1-(2,3,4-trimethoxyphenyl)prop-2-en-1-one] | 92.1 ± 0.75% | 19.6 ± 2.17% | 66.7 ± 0.45% | 15.2 ± 0.26 ×10⁻⁶ cm/s | 4.17 ± 0.23 µM | – | – | – | – | – | – | – | – | – | – | – | – | – |
| CN1C(C(=O)Nc2ccccn2)=C(O)c2ccccc2S1(=O)=O [Piroxicam] | – | – | – | – | – | CNS+/− | – | – | – | – | – | – | – | – | – | – | – | – |
| COc1ccc(C(=O)/C=C/c2ccc(Cl)cc2)c(OC)c1OC [CH4, (E)-3-(4-chlorophenyl)-1-(2,3,4-trimethoxyphenyl)prop-2-en-1-one] | 63.7 ± 1.02% | – | 54.3 ± 2.2% | 14.6 ± 0.26 ×10⁻⁶ cm/s | 0.84 ± 0.025 µM | – | 12.7 ± 0.23 µM | 15.1 | 13.6 ± 0.094 µM | competitive inhibitors | 0.68 ± 0.17 µM | 198 µg/mL (≈ 596 µM) | > 90% | decrease in ROS levels | 96.9% | reversible inhibitors | 30.9% | – |
| COc1ccc(C(=O)/C=C/c2ccc(Br)cc2)c(OC)c1OC [CH5, (E)-3-(4-bromophenyl)-1-(2,3,4-trimethoxyphenyl)prop-2-en-1-one] | 66.7 ± 3.96% | – | 64.3 ± 0.74% | 15.7 ± 0.22 ×10⁻⁶ cm/s | 0.46 ± 0.12 µM | – | 14.4 ± 1.1 µM | 31.3 | 19.8 ± 0.12 µM | competitive inhibitors | 0.31 ± 0.014 µM | 126 µg/mL (≈ 335 µM) | – | decrease in ROS levels | 73.8% | reversible inhibitors | 37.2% | > 90% |
| COc1cc(OC)c(C(=O)/C=C/c2ccc(Br)cc2)c(OC)c1 [CH2, (E)-3-(4-bromophenyl)-1-(2,4,6-trimethoxyphenyl)prop-2-en-1-one] | 92.4 ± 1.1% | 84.3 ± 3% | 57.2 ± 0.46% | 14.1 ± 0.8 ×10⁻⁶ cm/s | – | – | – | – | – | – | – | – | – | – | – | – | – | – |
| COc1cc(OC)c(C(=O)/C=C/c2ccc(Cl)cc2)c(OC)c1 [CH1, (E)-3-(4-chlorophenyl)-1-(2,4,6-trimethoxyphenyl)prop-2-en-1-one] | 90.1 ± 7.51% | 70.7 ± 2.16% | 61.3 ± 0.078% | 13.2 ± 0.33 ×10⁻⁶ cm/s | – | – | – | – | – | – | – | – | – | – | – | – | – | – |
